Assay results from the CheMixHub viscosity set.
Where “and” joins values, the source holds several entries; their conditions need not be identical. Identical values can stand only once. ± gives the uncertainty stated by the source.

Test: xn = mol fraction of the nth substance listed

CCC(=O)O + CCC(C)=O
viscosity [mPa·s], 101 kPa
Details	x2 = 0.0847	x2 = 0.1723	x2 = 0.2585	x2 = 0.357	x2 = 0.4544	x2 = 0.5554	x2 = 0.6602	x2 = 0.7691	x2 = 0.8822
293.15 K	1.038 ± 0.027	0.9722 ± 0.025	0.9093 ± 0.023	0.8393 ± 0.022	0.7718 ± 0.02	0.7038 ± 0.018	0.6354 ± 0.016	0.5665 ± 0.015	0.4974 ± 0.013
303.15 K	0.9022 ± 0.023	0.846 ± 0.022	0.7921 ± 0.02	0.7324 ± 0.019	0.6751 ± 0.017	0.6177 ± 0.016	0.556 ± 0.014	0.5027 ± 0.013	0.4455 ± 0.012
313.15 K	0.7975 ± 0.021	0.7494 ± 0.019	0.7031 ± 0.018	0.6516 ± 0.017	0.6019 ± 0.016	0.5519 ± 0.014	0.5015 ± 0.013	0.4508 ± 0.012	0.4 ± 0.01

CCC(=O)O + C1CCOC1
298.15 K, 101 kPa
Details	viscosity [mPa·s]
x2 = 0.1025	1.067 ± 0.009
x2 = 0.2043	1.069 ± 0.009
x2 = 0.3057	1.033 ± 0.0087
x2 = 0.4065	0.9675 ± 0.0082
x2 = 0.5067	0.8745 ± 0.0074
x2 = 0.6065	0.7835 ± 0.0067
x2 = 0.7056	0.6858 ± 0.0059
x2 = 0.8043	0.5947 ± 0.0052
x2 = 0.9024	0.5179 ± 0.0045

OC[C@@H](O)[C@@H](O)CO + OC[C@@H](O)[C@H](O)[C@@H](O)CO
101 kPa, x1 = 0.36
Details	viscosity [mPa·s]
313 K	31330
318 K	18000
323 K	10110

CCC(=O)O + CO
308.15 K, 101 kPa
Details	viscosity [mPa·s]
x1 = 0.0467	0.5336 ± 0.052
x1 = 0.0975	0.5843 ± 0.052
x1 = 0.157	0.6175 ± 0.052
x1 = 0.2234	0.6789 ± 0.052
x1 = 0.3021	0.7413 ± 0.052
x1 = 0.3923	0.8094 ± 0.052
x1 = 0.5024	0.9055 ± 0.052
x1 = 0.6344	0.9763 ± 0.052
x1 = 0.7111	1.021 ± 0.051
x1 = 0.7964	0.9955 ± 0.051
x1 = 0.8919	0.9369 ± 0.051

OC[C@@H](O)[C@@H](O[C@H]1O[C@H](CO)[C@@H](O)[C@H](O)[C@H]1O)[C@H](O)[C@@H](O)CO + O
Details	viscosity
293.15 K, 100 kPa, x1 = 0.06986	60.3 ± 3.2 mPa·s
293.15 K, 101.3 kPa, x1 = 0.004	1.19 ± 0.05 mPa·s
293.15 K, 101.3 kPa, x1 = 0.007	1.45 ± 0.06 mPa·s
293.15 K, 101.3 kPa, x1 = 0.01	1.77 ± 0.07 mPa·s
293.15 K, 101.3 kPa, x1 = 0.018	2.6 ± 0.11 mPa·s
298.15 K, 100 kPa, x1 = 0.07553	62 ± 3 mPa·s
303.15 K, 100 kPa, x1 = 0.08206	64 ± 3.2 mPa·s
303.15 K, 101 kPa, x1 = 0.003592	0.9493 ± 0.016 mPa·s
303.15 K, 101.3 kPa, x1 = 0.004	0.92 ± 0.04 mPa·s
303.15 K, 101.3 kPa, x1 = 0.007	1.11 ± 0.05 mPa·s
303.15 K, 101.3 kPa, x1 = 0.01	1.34 ± 0.05 mPa·s
303.15 K, 101.3 kPa, x1 = 0.018	1.93 ± 0.08 mPa·s
308.15 K, 100 kPa, x1 = 0.08946	67 ± 3 mPa·s
313.15 K, 100 kPa, x1 = 0.09729	68 ± 6 mPa·s
313.15 K, 101.3 kPa, x1 = 0.004	0.75 ± 0.03 mPa·s
313.15 K, 101.3 kPa, x1 = 0.007	0.89 ± 0.04 mPa·s
313.15 K, 101.3 kPa, x1 = 0.01	1.05 ± 0.04 mPa·s and 1.27 ± 0.05 mPa·s
313.15 K, 101.3 kPa, x1 = 0.018	1.49 ± 0.06 mPa·s
318.15 K, 100 kPa, x1 = 0.1055	76 ± 4 mPa·s
323.15 K, 100 kPa, x1 = 0.1147	79 ± 5 mPa·s
323.15 K, 101 kPa, x1 = 0.003592	0.6401 ± 0.011 mPa·s
323.15 K, 101 kPa, x1 = 0.007153	0.7457 ± 0.013 mPa·s
323.15 K, 101.3 kPa, x1 = 0.004	0.62 ± 0.03 mPa·s
323.15 K, 101.3 kPa, x1 = 0.007	0.73 ± 0.03 mPa·s
323.15 K, 101.3 kPa, x1 = 0.01	0.86 ± 0.04 mPa·s and 1.05 ± 0.04 mPa·s
323.15 K, 101.3 kPa, x1 = 0.018	1.19 ± 0.05 mPa·s

CCCOC(=O)CC + c1ccccc1
298.15 K, 101.33 kPa
Details	viscosity [mPa·s]
x1 = 0.1478	0.583 ± 0.01
x1 = 0.2542	0.583 ± 0.01
x1 = 0.3452	0.586 ± 0.01
x1 = 0.4049	0.588 ± 0.01
x1 = 0.616	0.604 ± 0.011
x1 = 0.7421	0.616 ± 0.011
x1 = 0.8096	0.622 ± 0.011
x1 = 0.878	0.63 ± 0.011
x1 = 0.9369	0.635 ± 0.011

Nc1ccc(S(=O)(=O)[O-])cc1.[Na+] + O
viscosity [mPa·s], 101 kPa
Details	x1 = 9e-05	x1 = 0.00018	x1 = 0.0009	x1 = 0.0018	x1 = 0.00448	x1 = 0.00893	x1 = 0.0133	x1 = 0.0177
298.15 K	0.899 ± 0.009	0.9 ± 0.009	0.915 ± 0.009	0.93 ± 0.009	0.984 ± 0.01	1.076 ± 0.011	1.174 ± 0.012	1.281 ± 0.011
318.15 K	0.598 ± 0.006	0.599 ± 0.006	0.61 ± 0.006	0.62 ± 0.006	0.654 ± 0.006	0.71 ± 0.007	0.771 ± 0.007	0.838 ± 0.008

CCC(=O)O + CCCCN(CCCC)CCCC
viscosity [mPa·s], 101.33 kPa
Details	x1 = 0.1	x1 = 0.2	x1 = 0.3	x1 = 0.4	x1 = 0.5	x1 = 0.6	x1 = 0.7	x1 = 0.8	x1 = 0.9
293.15 K	1.867 ± 0.029	–	–	–	6.422 ± 0.12	12.71 ± 0.22	26.1 ± 0.17	23.66 ± 0.14	6.57 ± 0.05
298.15 K	1.389 ± 0.018	1.676 ± 0.026	2.303 ± 0.05	3.571 ± 0.055	5.447 ± 0.057	10.24 ± 0.12	20.63 ± 0.23	19.13 ± 0.2	5.91 ± 0.05
303.15 K	1.228 ± 0.013	1.495 ± 0.015	1.923 ± 0.02	3.107 ± 0.031	4.591 ± 0.048	8.37 ± 0.09	16.9 ± 0.19	15.79 ± 0.15	4.93 ± 0.04
308.15 K	1.112 ± 0.011	1.342 ± 0.013	1.728 ± 0.017	2.693 ± 0.027	3.887 ± 0.04	7.04 ± 0.08	13.12 ± 0.15	13.19 ± 0.13	4.33 ± 0.03
313.15 K	1.015 ± 0.01	1.212 ± 0.012	1.523 ± 0.015	2.359 ± 0.023	3.372 ± 0.033	5.67 ± 0.06	10.81 ± 0.11	10.94 ± 0.1	3.79 ± 0.03
318.15 K	0.938 ± 0.009	1.096 ± 0.011	1.361 ± 0.013	2.071 ± 0.02	2.954 ± 0.028	5.03 ± 0.05	8.92 ± 0.09	9.32 ± 0.08	3.39 ± 0.03
323.15 K	0.878 ± 0.009	0.994 ± 0.01	1.245 ± 0.012	1.839 ± 0.017	2.557 ± 0.025	4.35 ± 0.04	7.55 ± 0.07	8.06 ± 0.07	3.04 ± 0.02

Nc1cccc(Cl)c1 + CCCCCCO
viscosity [mPa·s], 101 kPa
Details	x1 = 0.1167	x1 = 0.2291	x1 = 0.3375	x1 = 0.4421	x1 = 0.5431	x1 = 0.6407	x1 = 0.735	x1 = 0.8263	x1 = 0.9145
303.15 K	3.905 ± 0.13	3.925 ± 0.13	3.95 ± 0.13	3.98 ± 0.13	4.014 ± 0.14	4.056 ± 0.14	4.104 ± 0.14	4.156 ± 0.14	4.205 ± 0.14
308.15 K	3.383 ± 0.12	3.417 ± 0.12	3.454 ± 0.12	3.497 ± 0.12	3.545 ± 0.12	3.598 ± 0.12	3.654 ± 0.12	3.715 ± 0.12	3.776 ± 0.13
313.15 K	2.939 ± 0.1	2.976 ± 0.1	3.017 ± 0.1	3.064 ± 0.11	3.115 ± 0.11	3.17 ± 0.11	3.229 ± 0.11	3.292 ± 0.11	3.357 ± 0.11
318.15 K	2.662 ± 0.092	2.681 ± 0.093	2.707 ± 0.093	2.738 ± 0.094	2.773 ± 0.095	2.814 ± 0.097	2.857 ± 0.098	2.906 ± 0.099	2.959 ± 0.1

CC(=O)C=C(C)C + CCCCCOC(C)=O
298.15 K, 101 kPa
Details	viscosity [mPa·s]
x1 = 0.11	0.7593 ± 0.0094
x1 = 0.167	0.7461 ± 0.0092
